# According to ChEMBL document CHEMBL5042488, “Synthesis, biological, and structural explorations of a series of μ-opioid receptor (MOR) agonists with high G protein signaling bias” (Eur J Med Chem, 2022):
# Activity calls are given as the source filed them.
# Legend:
# Mu-type opioid receptor [1] = target: T1, Mu-type opioid receptor (Homo sapiens, UniProt P35372); assay: Agonist activity at mu opioid receptor (unknown origin) assessed as increase in cAMP level incubated for 40 mins by spectrophotometry; assay type: functional
# [2] = Metabolic stability in human liver microsomes assessed as intrinsic clearance preincubated for 10 mins followed by NADPH addition and measured after 60 mins by LC-MS/MS analysis; assay type: ADME, Microsome; conditions: time 70 min, read-out: CLH
# Mu-type opioid receptor [3] = target: T1, Mu-type opioid receptor; assay: Agonist activity at mu opioid receptor (unknown origin) assessed as maximal cAMP level incubated for 40 mins by spectrophotometry relative to DAMGO; assay type: functional; conditions: filed as agonist
# Mu-type opioid receptor [4] = target: T1, Mu-type opioid receptor; assay: Agonist activity at mu opioid receptor (unknown origin) assessed as beta arrestin-2 recruitment incubated for 3 days by PathHunter assay; assay type: functional
# Mu-type opioid receptor [5] = target: T1, Mu-type opioid receptor; assay: Agonist activity at mu opioid receptor (unknown origin) assessed as maximal beta arrestin-2 recruitment incubated for 3 days by PathHunter assay relative to DAMGO; assay type: functional; conditions: time 3.0 day
# [6] = Metabolic stability in rat liver microsomes assessed as intrinsic clearance preincubated for 10 mins followed by NADPH addition and measured after 60 mins by LC-MS/MS analysis; assay type: ADME, Microsome; conditions: time 70 min, read-out: CLH
# [7] = Apparent permeability across apical to basal membrane in human Caco-2 cells; assay type: ADME, cell-based
# [8] = Metabolic stability in dog liver microsomes assessed as intrinsic clearance preincubated for 10 mins followed by NADPH addition and measured after 60 mins by LC-MS/MS analysis; assay type: ADME, Canis lupus familiaris, Microsome; conditions: time 70 min, read-out: CLH
# [9] = Plasma protein binding in human plasma assessed as unbound fraction; assay type: ADME, cell-free
# [10] = Plasma protein binding in rat plasma assessed as unbound fraction; assay type: ADME, cell-free
# [11] = Plasma protein binding in dog plasma assessed as unbound fraction; assay type: ADME, cell-free, Canis lupus familiaris
# Cytochrome P450 2C19 = Cytochrome P450 2C19 (Homo sapiens, UniProt P33261); assay: Inhibition of CYP2C19 (unknown origin); assay type: ADME
# [12] = Cmax in Sprague-Dawley rat at 2 mg/kg, iv by LC-MS/MS analysis; assay type: ADME, organism-based; design: route intravenous, dose 2 mg/kg; conditions: in vivo
# [13] = AUClast in Sprague-Dawley rat at 2 mg/kg, iv by LC-MS/MS analysis; assay type: ADME, organism-based; design: time 0 - last, route intravenous, dose 2 mg/kg; conditions: in vivo
# [14] = AUC(0 to infinity) in Sprague-Dawley rat at 2 mg/kg, iv by LC-MS/MS analysis; assay type: ADME, organism-based; design: route intravenous, time infinity, dose 2 mg/kg; conditions: in vivo
# [15] = Apparent volume of distribution in Sprague-Dawley rat at 2 mg/kg, iv by LC-MS/MS analysis; assay type: ADME, organism-based; conditions: in vivo, read-out: Vz
# [16] = Half life in Sprague-Dawley rat at 2 mg/kg, iv by LC-MS/MS analysis; assay type: ADME, organism-based; conditions: in vivo
# [17] = MRT in Sprague-Dawley rat at 2 mg/kg, iv by LC-MS/MS analysis; assay type: ADME, organism-based; conditions: in vivo
# Mu-type opioid receptor [18] = target: T1, Mu-type opioid receptor; assay: Displacement of [3H]-Diprenorphine from human mu opiod receptor expressed in CHO cells incubated for 1 hr by competition binding assay; assay type: cell-based
# Mu-type opioid receptor [19] = target: T1, Mu-type opioid receptor; assay: Agonist activity at human mu opioid receptor expressed in HEK293 assessed as increase in calcium mobilization incubated for 60 mins by FLIPR assay; assay type: functional, cell-based
# [20] = target: Delta-type opioid receptor (Homo sapiens, UniProt P41143); assay: Agonist activity at human delta opioid receptor expressed in HEK293 assessed as increase in calcium mobilization incubated for 60 mins by FLIPR assay; assay type: functional, cell-based
# [21] = target: Kappa-type opioid receptor (Homo sapiens, UniProt P41145); assay: Agonist activity at human kappa opioid receptor expressed in HEK293 assessed as increase in calcium mobilization incubated for 60 mins by FLIPR assay; assay type: functional, cell-based
# Rattus norvegicus [22] = assay: Antinociceptive activity in Sprague-Dawley rat assessed as increase in paw withdrawal latency at 0.3 mg/kg, sc measured after 30 mins by Hot-plate test; assay type: functional, organism-based
# Rattus norvegicus [23] = assay: Antinociceptive activity in sc dosed Sprague-Dawley rat assessed as increase in thermal pain threshold measured after 30 mins by Hot-plate test; assay type: functional; conditions: 0.5 h
# [24] = Toxicity in Sprague-Dawley rat assessed as effect on respiration at 0.3 mg/kg, sc; assay type: organism-based; conditions: in vivo
# [25] = Toxicity in Sprague-Dawley rat model assessed as effect on blood oxygen levels at […], sc measured after 30 mins by blood gas analyzer; assay type: organism-based; conditions: in vivo, 0.5 h, dose 0.32 mg/kg
# [26] = Drug concentration in Sprague-Dawley rat brain at […], iv measured after 5 mins by LC-MS/MS analysis; assay type: ADME, organism-based; conditions: dose 0.25 mg/kg, read-out: Drug uptake
# [27] = Ratio of drug concentration in brain to plasma of Sprague-Dawley rat at 2 mg/kg, iv measured at […] by LC-MS/MS analysis; assay type: ADME, organism-based; conditions: time 0.25 hrs
# [28] = Drug concentration in Sprague-Dawley rat liver at […],iv measured after 30 mins by LC-MS/MS analysis; assay type: ADME, organism-based; conditions: in vivo, 0.5 h, dose 0.25 mg/kg
# Rattus norvegicus [29] = assay: Antinociceptive activity in Sprague-Dawley rat incision pain model assessed as increase in paw withdrawal latency at 0.125 to 0.5 mg/kg, sc measured after 30 mins by Von Frey filament assay; assay type: functional; conditions: dose 0.125-0.5 mg/kg
# [30] = Half life of compound; assay type: physicochemical
# T1 sequence (P35372 whole entry): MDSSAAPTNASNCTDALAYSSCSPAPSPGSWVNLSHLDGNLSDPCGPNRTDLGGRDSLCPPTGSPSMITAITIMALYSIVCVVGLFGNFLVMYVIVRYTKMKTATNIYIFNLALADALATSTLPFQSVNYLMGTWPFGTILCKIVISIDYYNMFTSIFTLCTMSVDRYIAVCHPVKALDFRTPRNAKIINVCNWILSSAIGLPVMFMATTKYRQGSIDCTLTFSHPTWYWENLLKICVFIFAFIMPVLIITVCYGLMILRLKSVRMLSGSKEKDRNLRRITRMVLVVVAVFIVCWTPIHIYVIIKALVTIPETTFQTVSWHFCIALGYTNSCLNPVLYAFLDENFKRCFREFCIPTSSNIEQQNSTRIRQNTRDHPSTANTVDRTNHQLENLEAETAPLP
# Kappa-type opioid receptor, sequence (P41145 whole entry): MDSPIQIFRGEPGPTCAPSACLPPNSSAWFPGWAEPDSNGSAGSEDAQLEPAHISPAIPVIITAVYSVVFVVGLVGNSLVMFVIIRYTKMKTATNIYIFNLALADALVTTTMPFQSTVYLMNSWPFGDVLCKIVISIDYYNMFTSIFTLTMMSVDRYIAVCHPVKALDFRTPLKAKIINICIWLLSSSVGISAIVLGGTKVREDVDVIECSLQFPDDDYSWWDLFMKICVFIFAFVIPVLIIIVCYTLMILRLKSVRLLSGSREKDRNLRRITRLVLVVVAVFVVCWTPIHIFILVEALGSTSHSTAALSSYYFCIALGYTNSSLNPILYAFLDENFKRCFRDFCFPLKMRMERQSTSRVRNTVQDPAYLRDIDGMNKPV
# Cytochrome P450 2C19, sequence (P33261 whole entry): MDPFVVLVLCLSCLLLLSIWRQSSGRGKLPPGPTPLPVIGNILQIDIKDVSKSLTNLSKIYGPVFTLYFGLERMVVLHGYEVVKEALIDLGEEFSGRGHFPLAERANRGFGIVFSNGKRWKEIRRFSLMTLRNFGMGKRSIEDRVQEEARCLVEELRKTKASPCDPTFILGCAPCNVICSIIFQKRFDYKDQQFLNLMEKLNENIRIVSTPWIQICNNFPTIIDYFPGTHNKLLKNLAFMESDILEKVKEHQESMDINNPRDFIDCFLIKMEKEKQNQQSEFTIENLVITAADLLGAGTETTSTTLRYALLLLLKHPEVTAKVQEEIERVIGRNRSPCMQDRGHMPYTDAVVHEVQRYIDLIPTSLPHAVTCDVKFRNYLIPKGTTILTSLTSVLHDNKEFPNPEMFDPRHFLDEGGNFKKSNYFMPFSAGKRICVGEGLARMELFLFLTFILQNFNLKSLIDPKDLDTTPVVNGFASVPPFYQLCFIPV
# Delta-type opioid receptor, sequence (P41143 whole entry): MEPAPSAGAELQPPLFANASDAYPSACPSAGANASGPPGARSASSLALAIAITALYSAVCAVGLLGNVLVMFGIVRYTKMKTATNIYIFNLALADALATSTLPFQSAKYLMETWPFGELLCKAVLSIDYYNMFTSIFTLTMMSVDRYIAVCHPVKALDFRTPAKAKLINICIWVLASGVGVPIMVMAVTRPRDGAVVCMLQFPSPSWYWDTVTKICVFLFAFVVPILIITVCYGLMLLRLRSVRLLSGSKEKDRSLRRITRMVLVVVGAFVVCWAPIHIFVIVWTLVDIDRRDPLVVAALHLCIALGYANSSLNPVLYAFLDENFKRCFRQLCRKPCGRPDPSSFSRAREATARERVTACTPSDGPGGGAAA
smiles,measurement,setting,value
Cc1cccc(CNCC[C@@]2(c3ccccn3)CCOC3(CCOC3)C2)c1 (some centres undefined),EC50,Mu-type opioid receptor [1],6.1 nM
same,CLint scaled,[2],8.8 mL/min/kg
same,Emax,Mu-type opioid receptor [3],88.9%
same,EC50,Mu-type opioid receptor [4],> 30 µM
c1ccc([C@]2(CCNCC3CCCCC3)CCOC3(CCOC3)C2)nc1 (some centres undefined),EC50,Mu-type opioid receptor [1],61.6 nM
same,Emax,Mu-type opioid receptor [3],59.2%
same,EC50,Mu-type opioid receptor [4],> 30 µM
FC1(F)CCc2c(csc2CNCC[C@@]2(c3ccccn3)CCOC3(CCOC3)C2)C1 (some centres undefined),EC50,Mu-type opioid receptor [1],0.5 nM
same,Emax,Mu-type opioid receptor [3],101%
same,EC50,Mu-type opioid receptor [4],0.069 µM
same,Emax,Mu-type opioid receptor [5]; filed as agonist,43.1%
c1ccc([C@]2(CCNCc3scc4c3COC4)CCOC3(CCCC3)C2)nc1,EC50,Mu-type opioid receptor [1],2 nM
same,CLint scaled,[2],230 mL/min/kg
same,Emax,Mu-type opioid receptor [3],90.5%
same,EC50,Mu-type opioid receptor [4],0.027 µM
same,Emax,Mu-type opioid receptor [5],4.4%
Fc1ccc([C@]2(CCNCc3cccc(Cl)c3)CCO[C@]3(CCOC3)C2)nc1,EC50,Mu-type opioid receptor [1],0.35 nM
same,CLint scaled,[6],176 mL/min/kg
same,Papp A→B,[7],5.2 ×10⁻⁶ cm/s
same,Emax,Mu-type opioid receptor [3],91.4%
same,CLint scaled,[8],152 mL/min/kg
same,fraction unbound,[9],0.34
same,fraction unbound,[10],0.33
same,fraction unbound,[11],0.17
same,IC50,Cytochrome P450 2C19,> 33 µM
same,Cmax,[12],252 ng/mL
same,AUC(0-t),[13],132 ng·h/mL
same,AUC,[14],134.01 ng·h/mL
same,Vd,[15],10.8 L/kg
same,half-life,[16],119 min
same,MRT,[17],48.6 min
same,Ki,Mu-type opioid receptor [18],0.514 nM
same,EC50,Mu-type opioid receptor [19],5.09 nM
same,EC50,[20],> 10 µM
same,EC50,[21],> 10 µM
same,Activity,Rattus norvegicus [22],Active
same,ED50,Rattus norvegicus [23],0.23 mg/kg
same,Activity,[24],Non-Toxic
same,Activity,[25],92.17%
same,concentration at 5 min,[26],172 ng/g
same,Kp at […],[27],4.61
same,Drug uptake,[28],58.6%
same,Emax,Mu-type opioid receptor [5],1.6%
same,Activity,Rattus norvegicus [29],50%
same,half-life,[30],7.16 min
Fc1ccc([C@]2(CCNCc3scc4c3CCC4)CCOC3(CCOCC3)C2)nc1,EC50,Mu-type opioid receptor [1],178 nM
same,Emax,Mu-type opioid receptor [3],125%
same,EC50,Mu-type opioid receptor [4],0.725 µM
same,Emax,Mu-type opioid receptor [5]; filed as agonist,125%
c1ccc([C@]2(CCNCc3scc4c3COC4)CCOC3(CCOC3)C2)nc1 (some centres undefined),EC50,Mu-type opioid receptor [1],14.1 nM
same,Emax,Mu-type opioid receptor [3],90.4%
same,EC50,Mu-type opioid receptor [4],> 30 µM
c1ccc([C@]2(CCNCc3ccc4ccccc4c3)CCOC3(CCOC3)C2)nc1 (some centres undefined),EC50,Mu-type opioid receptor [1],174 nM
same,Emax,Mu-type opioid receptor [3],124%
same,EC50,Mu-type opioid receptor [4],> 30 µM
same,Emax,Mu-type opioid receptor [5],1.1%
Fc1ccc([C@]2(CCNCc3scc4c3CCC4)CCOC3(CCOC3)C2)cc1 (some centres undefined),EC50,Mu-type opioid receptor [1],0.07 nM
same,CLint scaled,[2],157 mL/min/kg
same,EC50,Mu-type opioid receptor [4],> 30 µM
Fc1ccc([C@]2(CCNCc3cncc(Cl)c3)CCOC3(CCOC3)C2)cc1 (some centres undefined),EC50,Mu-type opioid receptor [1],12.8 nM
same,Emax,Mu-type opioid receptor [3],90.8%
same,EC50,Mu-type opioid receptor [4],> 30 µM
Fc1ccc([C@]2(CCNCc3scc4c3CCCC4)CCO[C@]3(CCOC3)C2)nc1,EC50,Mu-type opioid receptor [1],0.2 nM
same,CLint scaled,[2],338 mL/min/kg
same,Emax,Mu-type opioid receptor [3],99.5%
same,EC50,Mu-type opioid receptor [4],> 30 µM
COc1ccsc1CNCC[C@@]1(c2ccccn2)CCO[C@]2(CCOC2)C1,EC50,Mu-type opioid receptor [1],20 nM
same,CLint scaled,[2],9.3 mL/min/kg
same,Emax,Mu-type opioid receptor [3],63.7%
same,EC50,Mu-type opioid receptor [4],> 30 µM
same,Emax,Mu-type opioid receptor [5],1.2%
C[C@@H](Cc1ccsc1)NC(=O)NC[C@H](Cc1ccc(O)cc1)N(C)C,CLint scaled,[2],< 8.6 mL/min/kg
same,Emax,Mu-type opioid receptor [3],89.2%
same,Emax,Mu-type opioid receptor [5],5%
